Source: patent US20250179025A1, “CRYSTALLINE FORM OF DAROLUTAMIDE” (QUÍMICA SINTÉTICA, S.A., priority 2022, published 2025)
Converted amounts (≈) assume the structure as drawn. Read-outs that look alike come from different tables or passages of the source. Blank lines part the entries; values can stand above or below the compound they belong to.

How the values were obtained:
[1] = Determination of specific surface area (SSA), multi-point nitrogen adsorption BET; type: physicochemical; conditions: samples vacuum dried overnight at 45° C.; relative pressure 0.05-0.3 p/p0; eleven linear points
Source text: The term “about” includes the range of experimental errors, which can normally occur performing a measurement, e.g. ±5% or ±2% or ±1%. Sometimes, such a range can lie within the experimental error, typical of standard methods used for the measurement and/or determination of a given value or range. Particularly, the measurement uncertainty for the Multi-Point B.E.T. specific surface area parameter is equal to 15% for a SSA value greater than 2 m^2/g, and 20% for a SSA less than 2 m^2/g. It is expressed as extended uncertainty obtained by multiplying standard uncertainty by the coverage factor k equal to 2, corresponding to confidence level of about 95%. The uncertainty is related to the method of analysis and obtained as percent value from the analysis of a representative group of samples in the measurement range of the instrument.
Unless otherwise indicated, the data relative to the peaks in the XRPD pattern are meant within the common uncertainty due to the instrument measurement, typically ±0.2 degrees 2θ, when collected with the Kα radiation of copper (λ=1.5419 Å) at room temperature. The present invention provides, in one aspect, a new form of N-[(2S)-1-[3-(3-chloro-4-cyanophenyl)-1H-pyrazol-1-yl]-propan-2-yl]-5-(1-hydroxyethyl)-1H-pyrazole-3-carboxamide (darolutamide), herein called nanocrystalline form or NC form or Form NC, said nanocrystalline form being characterized by having specific surface area (SSA) in the range from about 40 m^2/g to about 150 m^2/g, preferably from about 50 m^2/g to about 135 m^2/g, more preferably from about 60 m^2/g to about 135 m^2/g analyzed using the multi-point nitrogen adsorption technique based on the Brunauer, Emmett and Teller (BET) theory, for example using TriStar (II) automated gas adsorption analyzer, (Micromeritics, Inc.). The samples are suitably vacuum dried overnight at 45° C. The volumetric method can be used at the relative pressure range of 0.05-0.3 p/p0 as reported in the experimental part. Specific surface area is an important physical property for an active pharmaceutical ingredient. This parameter can greatly influence the process of preparation of drugs, such as filtration, purification, blending, tableting as well as the characteristics of the active pharmaceutical ingredient especially its dissolution rate and, in turn, its bio-availability as generally known in the art, e.g. from Kyung Rok Chu et al. Effect of particle size on the dissolution behaviours of poorly water-soluble drugs, Arch. Pharm. Res., 2012 July, 35(7), 1187-95, DOI 10.1007/s12272-012-0709-3.
The specific surface area was measured using the multi-point nitrogen adsorption technique based on the Brunauer, Emmett and Teller (BET) theory using TriStar (II) automated gas adsorption analyzer (Micromeritics, Inc.). All the samples were dried under vacuum overnight hours at 45° C. The volumetric method was applied at the relative pressure range 0.05-0.3 p/p^0, and the Specific Surface Area values were calculated in said pressure range using “Multi-Point BET” calculation method based on eleven linear points.

[2] = values reported in WO 2018/162793 or by its applicant in annex 1 during European prosecution; cited from earlier work
[3] = poorly soluble in the physiological pH range; cited from earlier work
[4] = Stability study at 40° C. and 75% RH (HPLC purity, XRPD); type: physicochemical; conditions: double PE bag in HDPE bottle, 1, 3, 6 and 12 months
Method: 5 aliquots of about 1 g of nanocrystalline form of present invention were stored at the following conditions wherein RH is referred to relative humidity: • 40° C. and 75% RH, double PE bag in HDPE bottle
The sample were analysed before the storage (To), after 1 month, 3 months, 6 months and 12 months using high performance chromatography (HPLC) method to control the purity and X-ray powder diffractogram (XRPD) to evaluate any change in crystalline form.

Concentration of Darolutamide in saturated solution (0 min, pH 1): 0 µg/mL | Concentration of Darolutamide in saturated solution (0 min, pH 7.5): 0 µg/mL | Concentration of Darolutamide in saturated solution (5 min, pH 1): 159 µg/mL | Concentration of Darolutamide in saturated solution (5 min, pH 7.5): 162 µg/mL | Concentration of Darolutamide in saturated solution (10 min, pH 1): 162 µg/mL | Concentration of Darolutamide in saturated solution (10 min, pH 7.5): 155 µg/mL | Concentration of Darolutamide in saturated solution (60 min, pH 1): 117 µg/mL | Concentration of Darolutamide in saturated solution (60 min, pH 7.5): 132 µg/mL | Specific Surface Area (SSA) Multi-point BET [1]: 134.0 m^2/g
Structure (SMILES): CC(O)c1cc(C(=O)N[C@@H](C)Cn2ccc(-c3ccc(C#N)c(Cl)c3)n2)[nH]n1 (single isomer, unassigned) [Example 3, darolutamide]

Concentration of Darolutamide in saturated solution (0 min, pH 1): 0 µg/mL | Concentration of Darolutamide in saturated solution (0 min, pH 7.5): 0 µg/mL | Concentration of Darolutamide in saturated solution (5 min, pH 1): 20 µg/mL | Concentration of Darolutamide in saturated solution (5 min, pH 7.5): 20 µg/mL | Concentration of Darolutamide in saturated solution (10 min, pH 1): 20 µg/mL | Concentration of Darolutamide in saturated solution (10 min, pH 7.5): 21 µg/mL | Concentration of Darolutamide in saturated solution (60 min, pH 1): 17 µg/mL | Concentration of Darolutamide in saturated solution (60 min, pH 7.5): 19 µg/mL | Specific Surface Area (SSA) Multi-point BET [1]: 26.6 m^2/g
Structure (SMILES): CC(O)c1cc(C(=O)N[C@@H](C)Cn2ccc(-c3ccc(C#N)c(Cl)c3)n2)[nH]n1 (stereo partly drawn) [Comparative example 1a, darolutamide]

Specific Surface Area (SSA) Multi-point BET [1]: 29.5 m^2/g
Structure (SMILES): CC(O)c1cc(C(=O)N[C@@H](C)Cn2ccc(-c3ccc(C#N)c(Cl)c3)n2)[nH]n1 (stereo partly drawn) [Comparative example 1b, darolutamide]

Specific Surface Area (SSA) Multi-point BET [1]: 34.4 m^2/g
Structure (SMILES): CC(O)c1cc(C(=O)N[C@@H](C)Cn2ccc(-c3ccc(C#N)c(Cl)c3)n2)[nH]n1 (stereo partly drawn) [Comparative example 1c, darolutamide]

Concentration of Darolutamide in saturated solution (0 min, pH 1): 0 µg/mL | Concentration of Darolutamide in saturated solution (0 min, pH 7.5): 0 µg/mL | Concentration of Darolutamide in saturated solution (5 min, pH 1): 23 µg/mL | Concentration of Darolutamide in saturated solution (5 min, pH 7.5): 22 µg/mL | Concentration of Darolutamide in saturated solution (10 min, pH 1): 22 µg/mL | Concentration of Darolutamide in saturated solution (10 min, pH 7.5): 18 µg/mL | Concentration of Darolutamide in saturated solution (60 min, pH 1): 22 µg/mL | Concentration of Darolutamide in saturated solution (60 min, pH 7.5): 21 µg/mL | Specific Surface Area (SSA) Multi-point BET [1]: 11.6 m^2/g
Structure (SMILES): CC(O)c1cc(C(=O)N[C@@H](C)Cn2ccc(-c3ccc(C#N)c(Cl)c3)n2)[nH]n1 (stereo partly drawn) [Comparative example 2, darolutamide]

Specific Surface Area (SSA) Multi-point BET [1]: 121.6 m^2/g
Structure (SMILES): CC(O)c1cc(C(=O)N[C@@H](C)Cn2ccc(-c3ccc(C#N)c(Cl)c3)n2)[nH]n1 (stereo partly drawn) [Example 10, darolutamide]

solubility concentration (5 min): 20 µg/mL
Structure (SMILES): CC(O)c1cc(C(=O)N[C@@H](C)Cn2ccc(-c3ccc(C#N)c(Cl)c3)n2)[nH]n1 (stereo partly drawn) [crystalline rounded particles, darolutamide]

Second part, the compound before the results:

Structure (SMILES): CC(O)c1cc(C(=O)N[C@@H](C)Cn2ccc(-c3ccc(C#N)c(Cl)c3)n2)[nH]n1 (single isomer, unassigned) [Example 4, darolutamide]
Concentration of Darolutamide in saturated solution (0 min, pH 1): 0 µg/mL | Concentration of Darolutamide in saturated solution (0 min, pH 7.5): 0 µg/mL | Concentration of Darolutamide in saturated solution (5 min, pH 1): 137 µg/mL | Concentration of Darolutamide in saturated solution (5 min, pH 7.5): 157 µg/mL | Concentration of Darolutamide in saturated solution (10 min, pH 1): 146 µg/mL | Concentration of Darolutamide in saturated solution (10 min, pH 7.5): 149 µg/mL | Concentration of Darolutamide in saturated solution (60 min, pH 1): 113 µg/mL | Concentration of Darolutamide in saturated solution (60 min, pH 7.5): 109 µg/mL | Specific Surface Area (SSA) Multi-point BET [1]: 111.7 m^2/g

Structure (SMILES): CC(O)c1cc(C(=O)N[C@@H](C)Cn2ccc(-c3ccc(C#N)c(Cl)c3)n2)[nH]n1 (single isomer, unassigned) [Example 5, darolutamide]
Concentration of Darolutamide in saturated solution (0 min, pH 1): 0 µg/mL | Concentration of Darolutamide in saturated solution (0 min, pH 7.5): 0 µg/mL | Concentration of Darolutamide in saturated solution (5 min, pH 1): 117 µg/mL | Concentration of Darolutamide in saturated solution (5 min, pH 7.5): 128 µg/mL | Concentration of Darolutamide in saturated solution (10 min, pH 1): 126 µg/mL | Concentration of Darolutamide in saturated solution (10 min, pH 7.5): 132 µg/mL | Concentration of Darolutamide in saturated solution (60 min, pH 1): 113 µg/mL | Concentration of Darolutamide in saturated solution (60 min, pH 7.5): 109 µg/mL | Specific Surface Area (SSA) Multi-point BET [1]: 66.8 m^2/g

Structure (SMILES): CC(O)c1cc(C(=O)N[C@@H](C)Cn2ccc(-c3ccc(C#N)c(Cl)c3)n2)[nH]n1 (stereo partly drawn) [Crystalline rounded particles sample A unmilled] [darolutamide]
Specific Surface Area (SSA) Multi-point BET [2]: 13 m^2/g

Structure (SMILES): CC(O)c1cc(C(=O)N[C@@H](C)Cn2ccc(-c3ccc(C#N)c(Cl)c3)n2)[nH]n1 (stereo partly drawn) [Crystalline rounded particles sample B unmilled] [darolutamide]
Specific Surface Area (SSA) Multi-point BET [2]: 12 m^2/g

Structure (SMILES): CC(O)c1cc(C(=O)N[C@@H](C)Cn2ccc(-c3ccc(C#N)c(Cl)c3)n2)[nH]n1 (stereo partly drawn) [Example 11, darolutamide]
Specific Surface Area (SSA) Multi-point BET [1]: 66.6 m^2/g

Structure (SMILES): CC(O)c1cc(C(=O)N[C@@H](C)Cn2ccc(-c3ccc(C#N)c(Cl)c3)n2)[nH]n1 (stereo partly drawn) [Example 23, darolutamide]
Specific Surface Area (SSA) Multi-point BET [1]: 46.0 m^2/g

Structure (SMILES): CC(O)c1cc(C(=O)N[C@@H](C)Cn2ccc(-c3ccc(C#N)c(Cl)c3)n2)[nH]n1 (stereo partly drawn) [Example 24, darolutamide]
Specific Surface Area (SSA) Multi-point BET [1]: 43.8 m^2/g

Structure (SMILES): CC(O)c1cc(C(=O)N[C@@H](C)Cn2ccc(-c3ccc(C#N)c(Cl)c3)n2)[nH]n1 (stereo partly drawn) [Form I, darolutamide]
Specific Surface Area (SSA) Multi-point BET [2]: 22.1 m^2/g | solubility concentration (5 min): 20 µg/mL (≈ 50.1 µM)

Structure (SMILES): CC(O)c1cc(C(=O)N[C@@H](C)Cn2ccc(-c3ccc(C#N)c(Cl)c3)n2)[nH]n1 (stereo partly drawn) [darolutamide, N-[(2S)-1-[3-(3-chloro-4-cyanophenyl)-1H-pyrazol-1-yl]-propan-2-yl]-5-(1-hydroxyethyl)-1H-pyrazole-3-carboxamide]
Biopharmaceutics Classification System (BCS) class [3]: class II

Structure (SMILES): CC(O)c1cc(C(=O)N[C@@H](C)Cn2ccc(-c3ccc(C#N)c(Cl)c3)n2)[nH]n1 (stereo partly drawn) [nanocrystalline form, N-[(2S)-1-[3-(3-chloro-4-cyanophenyl)-1H-pyrazol-1-yl]-propan-2-yl]-5-(1-hydroxyethyl)-1H-pyrazole-3-carboxamide]
solubility concentration (5 min): 120 to 160 µg/mL | chemical stability: purity by HPLC versus initial profile at T0 [4]: does not present a significant worsening of the purity | physical stability: change in crystalline form by XRPD [4]: no signs of transformation into a different crystalline form
